Literature values as cited in patent US6500801B1, “Treatment for Dutch elm disease” (The Governing Council of the University of Toronto, priority 1997, dated 2002).

Test system: strains of O. ulmi

Row | Structure (SMILES) | inhibition of growth of strains of O. ulmi
1 | CC1=Cc2c(c(C)cc(O)c2C(C)C)C(=O)C1=O [mansonone G] | inhibit the growth
2 | CC1=CC2=C(C(=O)C1=O)C(C)CCC2C(C)C (stereo not drawn) [mansonone A] | inhibit the growth
3 | CC1=C2OCC(C)c3ccc(C)c(c32)C(=O)C1=O (stereo not drawn) [mansonone E] | inhibit the growth
4 | CC1=Cc2c(c(C)cc3c2C(C)CO3)C(=O)C1=O (stereo not drawn) [mansonone D] | inhibit the growth
5 | CC1=COC2=C(C)C(=O)C(=O)c3c(C)ccc1c32 [mansonone F] | inhibit the growth
6 | CC1=Cc2c(C(C)C)ccc(C)c2C(=O)C1=O [mansonone C] | inhibit the growth
